Patent US20240009170A1, “INHIBITION OF GLYCOGEN SYNTHASE KINASE-3 (GSK-3)” (Brown University, priority 2020, published 2024)
Read-outs that look alike come from different tables or passages of the source.

Key:
[1] = test system: TALL-104 T cells; assay: Western blot analysis, TALL-104; type: cell-based, Human
Description: (§1) Western blot analysis. Cells were plated in a 6-well plate and incubated overnight before the spent media was replaced with drugged media. Drug treatment lasted for indicated durations. Protein was extracted using radioimmunoprecipitation (RIPA) assay buffer (Cat #R0278, Sigma-Aldrich, St. Louis, MO) containing cOmplete™ Mini, EDTA-free Protease Inhibitor Cocktail (Cat #4693159001, Roche, Basel, Switzerland). Denaturing sample buffer was added, samples were boiled at 95 degrees for 10 minutes. An equal amount of protein lysate was electrophoresed through NuPAGE™ 4 to 12%, Bis-Tris, 1.5 mm, Mini Protein Gels (Invitrogen, Waltham, MA, USA) then transferred to PVDF membranes. The PVDF membrane was blocked with 5% non-fat milk (Sigma-Aldrich, St. Louis, MO, USA) in 1× TTBS. Primary antibodies were incubated with the transferred PVDF membrane in blocking buffer at 4° C. overnight. Secondary antibodies used included goat anti-rabbit IgG (H+L) secondary antibody, HRP (Cat #31460, Invitrogen, Waltham, MA, USA) and goat anti-mouse IgG (H+L) secondary antibody, HRP (Cat #31430, Invitrogen, Waltham, MA, USA). Signal was detected using a Syngene Imaging System.
(§2) 9-ING-41 treatment decreases survival factor expression while increasing PD-L1 levels in colorectal cancer cell lines. To elucidate the mechanism behind the differential effects of 9-ING-41 on either colorectal cancer or immune cells in co-culture and cytokine profiling assays, the inventors performed Western blot analyses on tumor and immune cells treated with 9-ING-41 over a 72-hour time course.
(§3) Treating cells from colorectal cancer cell lines with 1 μM 9-ING-41 decreases Surivin, NF-κB p65, and IκBα while increasing PD-L1 levels in, 9-ING-41 treatment of immune cells increases NIK. Western blot analysis of HCT-116 and HT-29 colorectal cancer cells for expression of indicated proteins after increasing durations of 9-ING-41 treatment (0-72 hours). Western blot analysis of TALL-104 T cells for expression of indicated proteins after increasing durations of 9-ING-41 treatment (0-72 hours). […]

[2] = test system: HT-29 colorectal cancer cells; assay: Western blot analysis, HT-29; type: cell-based, Human
Description: as §1, §2, §3

[3] = Body weight, complete blood count and serum chemistry in the CT-26 BALB/c model; set-up: species or system BALB/c mice; details: mouse, in vivo
Text: As can be expected in mice with significant tumor burdens, mice across treatment groups had decreased albumin levels and evidence of mild marrow hypoplasia resulting in mild anemia, and lower white blood cell and platelet counts. This effect was independent of treatment group and likely related to tumor burden at the time of sacrifice.

[4] = test system: prostate cancer cell lines; details: cited from earlier work
[5] = test system: pulmonary fibrosis; details: cited from earlier work
[6] = as treatment duration increased

Cn1cc(C2=C(c3coc4ccc(F)cc34)C(=O)NC2=O)c2cc3c(cc21)OCO3 [9-ING-41]
PD-1 expression ([1]; 0-72 hours): decreased
Survivin and NIK ([1]; 0-72 hours): surprising increases
NF-KB, IKK β, IKBα, pIKBα, and Bcl-2 [1, 6]: no significant changes
IKKβ and Nik ([2]; 0-72 hours): did not change
PD-L1 [2, 6]: increased
Survivin, NF-KB, IKBα, pIKBα, and Bcl-2 ([2]; by the 72-hour timepoint): decreased
electrolyte perturbations [3]: free of significant electrolyte perturbations
renal function (blood urea nitrogen and creatinine) [3]: maintained normal renal function
expression of PD-L1 [4]: regulated the expression of PD-L1
pulmonary fibrosis and pulmonary function ([5]; models of TGF-β): reduced pulmonary fibrosis and improved pulmonary function
pulmonary fibrosis and pulmonary function ([5]; models of bleomycin pulmonary fibrosis): reduced pulmonary fibrosis and improved pulmonary function
